Key:
SK-MEL-5 cells = test: SK-MEL-5 cell cytotoxicity assay (CellTiter-Glo); assay type: cell-based, human; details: Homo sapiens, SK-MEL-5; 24 hours, CellTiter-Glo; read-out: Target Potency IC50 (μM) SKMEL5
Description: (§1) SK-MEL-5 cells were treated with compounds for 24 hours, and then cell viability was measured using the CellTiter-Glo Assay (Promega), a luciferase-based reagent that measures cellular ATP levels. The compounds were tested at different concentrations to determine IC50 values. Compounds that were active in the primary assay and toxic below 30 μM at 24 hours were considered for probe development. Data were normalized against DMSO in Genedata Screener's Assay Analyzer.
(§2) SK-MEL-5 cells were maintained in DMEM (10% FBS, 1% Pen-Strep-Glutamine). Cells were fluid changed every 3 days and/or split upon reaching 100% confluency. For secondary assays, cells were thawed at 4 million cells per Falcon T175 flask. After 3 days, the cells were fluid changed, after 3 more days cells were passed to a Corning Triple flask (10-15 million cells) and plated after 3 days in the triple flask.
Day 1 • 1. Plate SK-MEL-5 cells at 3,000 per well in 30 uL media (phenol red free DMEM/10% Fetal Bovine Serum/Penicillin/Streptomycin/L-Glutamine) • 2. Use Corning white 384-well, square, opaque-bottomed plates (Corning Catalog No. 8867BC)
Day 2 • 3. Pin 100 nL compound/DMSO solution (Cybi Well) into assay plates. (For HTS, required sentinel pinning with the positive control, parthenolide (6 mM)) • 4. […]
(§3) Day 3 • 5. […] Read on the Perkin-Elmer EnVision plate reader with luminescence (LUM) settings for 0.1 sec per well. […]

MALME-3M cells = test: MALME-3M cell cytotoxicity assay (CellTiter-Glo); assay type: cell-based, human; details: Homo sapiens, Malme-3M, read-out: Target Potency IC50 (μM) MALME-3M; 24 hours, CellTiter-Glo
Description: as §1, with “MALME-3M” for “SK-MEL-5”
as §2, with “MALME-3M” for “SK-MEL-5”, “IMDM (20%” for “DMEM (10%”, “6” for “4”, “days,” for “days, the”, “(15-18” for “(10-15”
Day 1 • 1. Plate MALME-3M cells at 3,000 per well in 30 uL media (phenol red free IMDM/10% Fetal Bovine Serum/Penicillin/Streptomycin/L-Glutamine) • 2. Use Corning white 384-well, square, opaque-bottomed plates (Corning Catalog No. 8867BC)
Day 2 • 3. Pin 100 nL compound/DMSO solution (Cybi Well) into assay plates, including the positive control. • 4. Incubate 24 hours at 37° C. in Liconic incubator.
as §3

[1] = target: T1, Androgen (Testosterone) AR (Rattus norvegicus, UniProt P15207); test: Radioligand binding, Androgen (Testosterone) AR
T1 construct: Eurofins Panlabs, Inc. (contract assay)
T1 sequence (P15207 whole entry S389L): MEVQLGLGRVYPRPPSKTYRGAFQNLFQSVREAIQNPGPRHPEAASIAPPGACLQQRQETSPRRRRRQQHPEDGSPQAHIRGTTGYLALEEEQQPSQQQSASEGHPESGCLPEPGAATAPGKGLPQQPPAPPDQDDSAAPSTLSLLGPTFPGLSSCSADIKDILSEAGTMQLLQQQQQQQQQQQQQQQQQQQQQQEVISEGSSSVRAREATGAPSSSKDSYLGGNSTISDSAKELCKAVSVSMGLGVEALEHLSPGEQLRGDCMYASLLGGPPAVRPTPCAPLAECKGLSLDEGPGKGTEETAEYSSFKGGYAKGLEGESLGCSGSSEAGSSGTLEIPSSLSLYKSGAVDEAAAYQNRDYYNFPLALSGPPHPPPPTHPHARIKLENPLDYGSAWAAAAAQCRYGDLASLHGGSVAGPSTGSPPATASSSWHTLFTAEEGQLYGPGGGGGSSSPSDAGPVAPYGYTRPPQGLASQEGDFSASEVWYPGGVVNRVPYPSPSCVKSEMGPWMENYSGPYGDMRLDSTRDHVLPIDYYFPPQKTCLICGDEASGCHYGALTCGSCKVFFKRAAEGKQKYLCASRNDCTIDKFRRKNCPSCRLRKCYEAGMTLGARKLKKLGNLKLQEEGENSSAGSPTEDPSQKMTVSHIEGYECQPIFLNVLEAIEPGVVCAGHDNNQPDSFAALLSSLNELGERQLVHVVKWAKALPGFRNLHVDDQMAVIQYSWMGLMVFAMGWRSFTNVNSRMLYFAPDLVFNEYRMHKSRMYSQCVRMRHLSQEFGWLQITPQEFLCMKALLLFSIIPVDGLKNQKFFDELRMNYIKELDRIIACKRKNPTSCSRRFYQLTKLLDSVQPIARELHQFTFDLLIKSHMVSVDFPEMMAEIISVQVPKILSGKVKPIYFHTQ

Dopamine D3 = target: T2, Dopamine D3 (Homo sapiens, UniProt P35462); test: Radioligand binding, Dopamine D3
T2 construct: Eurofins Panlabs, Inc. (contract assay)
T2 sequence (P35462 whole entry): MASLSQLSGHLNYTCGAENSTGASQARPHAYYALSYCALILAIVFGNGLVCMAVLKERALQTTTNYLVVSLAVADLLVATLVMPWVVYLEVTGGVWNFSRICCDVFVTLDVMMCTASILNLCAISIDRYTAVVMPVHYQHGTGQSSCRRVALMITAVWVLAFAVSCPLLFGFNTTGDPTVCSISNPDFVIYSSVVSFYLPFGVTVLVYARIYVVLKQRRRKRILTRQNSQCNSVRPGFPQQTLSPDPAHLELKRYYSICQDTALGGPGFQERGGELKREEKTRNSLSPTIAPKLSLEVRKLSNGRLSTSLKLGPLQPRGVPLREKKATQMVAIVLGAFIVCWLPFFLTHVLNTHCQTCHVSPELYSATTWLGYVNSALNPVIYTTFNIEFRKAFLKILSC

[2] = target: T3, Transporter, Dopamine (DAT) (Homo sapiens, UniProt Q01959); test: Radioligand binding, Transporter, Dopamine (DAT)
T3 construct: Eurofins Panlabs
T3 sequence (Q01959 whole entry): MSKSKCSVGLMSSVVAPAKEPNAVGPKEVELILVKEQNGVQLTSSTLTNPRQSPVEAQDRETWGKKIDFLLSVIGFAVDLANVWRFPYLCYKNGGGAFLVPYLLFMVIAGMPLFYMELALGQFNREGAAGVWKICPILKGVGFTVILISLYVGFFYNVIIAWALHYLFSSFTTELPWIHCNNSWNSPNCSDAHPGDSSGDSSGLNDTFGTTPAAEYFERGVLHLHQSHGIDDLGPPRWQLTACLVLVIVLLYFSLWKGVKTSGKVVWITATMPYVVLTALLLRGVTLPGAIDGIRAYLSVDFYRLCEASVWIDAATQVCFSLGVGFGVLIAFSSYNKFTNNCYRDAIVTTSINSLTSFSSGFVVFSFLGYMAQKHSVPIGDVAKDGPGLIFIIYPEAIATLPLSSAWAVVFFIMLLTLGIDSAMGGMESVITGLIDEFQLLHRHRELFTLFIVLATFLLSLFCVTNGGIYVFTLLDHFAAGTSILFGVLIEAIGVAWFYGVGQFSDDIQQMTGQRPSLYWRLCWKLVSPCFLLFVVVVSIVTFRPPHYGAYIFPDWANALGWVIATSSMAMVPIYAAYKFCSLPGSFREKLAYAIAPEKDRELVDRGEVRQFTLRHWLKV

Adrenergic β1 = target: T4, Adrenergic β1 (Homo sapiens, UniProt P08588); test: Radioligand binding, Adrenergic β1
T4 construct: Eurofins Panlabs, Inc. (contract assay)
T4 sequence (P08588 whole entry): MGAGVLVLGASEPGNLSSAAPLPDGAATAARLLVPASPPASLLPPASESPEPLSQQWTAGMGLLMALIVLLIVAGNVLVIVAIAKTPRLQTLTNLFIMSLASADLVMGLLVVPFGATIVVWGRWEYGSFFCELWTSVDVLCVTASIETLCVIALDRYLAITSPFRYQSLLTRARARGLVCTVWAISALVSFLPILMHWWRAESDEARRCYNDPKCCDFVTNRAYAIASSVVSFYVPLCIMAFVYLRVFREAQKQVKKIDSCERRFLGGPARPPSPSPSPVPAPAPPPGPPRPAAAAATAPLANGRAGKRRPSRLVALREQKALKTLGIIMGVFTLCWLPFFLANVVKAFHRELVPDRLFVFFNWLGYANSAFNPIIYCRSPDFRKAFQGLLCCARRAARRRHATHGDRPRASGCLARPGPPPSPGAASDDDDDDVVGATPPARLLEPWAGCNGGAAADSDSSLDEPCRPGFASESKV

[3] = target: T5, Transporter, Serotonin (5-Hydroxytryptamine) (SERT) (Homo sapiens, UniProt P31645); test: Radioligand binding, Transporter, Serotonin (5-Hydroxytryptamine) (SERT)
T5 construct: Eurofins Panlabs
T5 sequence (P31645 whole entry): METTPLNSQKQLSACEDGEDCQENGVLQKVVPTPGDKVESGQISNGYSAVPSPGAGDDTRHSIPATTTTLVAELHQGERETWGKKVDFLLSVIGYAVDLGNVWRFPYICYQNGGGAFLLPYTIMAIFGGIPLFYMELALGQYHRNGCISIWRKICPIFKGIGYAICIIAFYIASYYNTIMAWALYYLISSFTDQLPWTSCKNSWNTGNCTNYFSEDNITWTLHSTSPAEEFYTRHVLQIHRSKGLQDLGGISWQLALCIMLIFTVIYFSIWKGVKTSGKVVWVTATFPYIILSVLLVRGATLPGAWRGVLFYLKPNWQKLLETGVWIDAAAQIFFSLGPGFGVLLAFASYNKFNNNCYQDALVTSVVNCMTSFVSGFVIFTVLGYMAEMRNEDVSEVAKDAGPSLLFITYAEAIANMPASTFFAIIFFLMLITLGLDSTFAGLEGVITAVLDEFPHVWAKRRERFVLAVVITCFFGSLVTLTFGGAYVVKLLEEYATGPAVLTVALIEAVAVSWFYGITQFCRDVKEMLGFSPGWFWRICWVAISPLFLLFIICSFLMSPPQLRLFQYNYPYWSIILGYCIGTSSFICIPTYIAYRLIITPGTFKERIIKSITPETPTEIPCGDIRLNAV

Bradykinin B2 = target: T6, Bradykinin B2 (Homo sapiens, UniProt P30411); test: Radioligand binding, Bradykinin B2
T6 construct: Eurofins Panlabs, Inc. (contract assay)
T6 sequence (P30411 whole entry): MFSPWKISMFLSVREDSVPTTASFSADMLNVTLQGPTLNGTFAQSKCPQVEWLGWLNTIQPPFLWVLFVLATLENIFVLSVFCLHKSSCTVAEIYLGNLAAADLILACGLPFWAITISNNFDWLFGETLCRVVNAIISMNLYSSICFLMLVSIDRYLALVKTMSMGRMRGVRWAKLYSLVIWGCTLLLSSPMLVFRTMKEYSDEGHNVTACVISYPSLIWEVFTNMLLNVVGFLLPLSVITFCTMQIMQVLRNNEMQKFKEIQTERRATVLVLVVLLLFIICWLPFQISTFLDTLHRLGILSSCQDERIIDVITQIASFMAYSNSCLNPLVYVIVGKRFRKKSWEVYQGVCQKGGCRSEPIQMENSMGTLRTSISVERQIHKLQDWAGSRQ

Muscarinic M3 = target: T7, Muscarinic M3 (Homo sapiens, UniProt P20309); test: Radioligand binding, Muscarinic M3
T7 construct: Eurofins Panlabs, Inc

GABAB1A = target: T8, GABAB1A (Homo sapiens, UniProt Q9UBS5); test: Radioligand binding, GABAB1A
T8 construct: Eurofins Panlabs, Inc
T8 sequence (Q9UBS5 15-961 limits assumed): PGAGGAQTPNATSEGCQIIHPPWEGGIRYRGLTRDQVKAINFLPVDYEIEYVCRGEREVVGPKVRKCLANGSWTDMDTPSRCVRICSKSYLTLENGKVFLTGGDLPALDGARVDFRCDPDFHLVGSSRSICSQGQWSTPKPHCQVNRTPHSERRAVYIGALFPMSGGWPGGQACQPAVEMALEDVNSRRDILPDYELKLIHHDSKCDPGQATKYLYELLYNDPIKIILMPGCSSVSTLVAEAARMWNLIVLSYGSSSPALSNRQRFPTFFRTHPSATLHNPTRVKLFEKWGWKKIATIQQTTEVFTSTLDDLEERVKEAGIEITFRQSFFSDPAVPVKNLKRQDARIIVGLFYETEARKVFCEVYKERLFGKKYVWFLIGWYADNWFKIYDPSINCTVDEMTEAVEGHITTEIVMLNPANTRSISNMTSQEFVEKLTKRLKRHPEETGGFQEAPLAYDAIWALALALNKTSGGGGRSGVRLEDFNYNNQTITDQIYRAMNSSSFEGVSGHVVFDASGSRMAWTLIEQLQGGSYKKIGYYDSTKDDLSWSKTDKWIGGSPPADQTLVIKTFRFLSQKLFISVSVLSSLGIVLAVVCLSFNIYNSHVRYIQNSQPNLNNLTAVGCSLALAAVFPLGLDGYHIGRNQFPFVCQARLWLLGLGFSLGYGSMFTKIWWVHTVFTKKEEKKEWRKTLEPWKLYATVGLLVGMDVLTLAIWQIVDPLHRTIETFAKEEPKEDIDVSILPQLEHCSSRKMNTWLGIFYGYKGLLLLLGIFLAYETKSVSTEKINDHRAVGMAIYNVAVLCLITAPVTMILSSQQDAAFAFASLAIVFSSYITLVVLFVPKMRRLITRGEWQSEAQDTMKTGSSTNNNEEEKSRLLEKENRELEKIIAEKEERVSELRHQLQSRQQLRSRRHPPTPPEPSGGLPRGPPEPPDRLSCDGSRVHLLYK

Prostanoid EP4 = target: T9, Prostanoid EP4 (Homo sapiens, UniProt P35408); test: Radioligand binding, Prostanoid EP4
T9 construct: Eurofins Panlabs
T9 sequence (P35408 whole entry): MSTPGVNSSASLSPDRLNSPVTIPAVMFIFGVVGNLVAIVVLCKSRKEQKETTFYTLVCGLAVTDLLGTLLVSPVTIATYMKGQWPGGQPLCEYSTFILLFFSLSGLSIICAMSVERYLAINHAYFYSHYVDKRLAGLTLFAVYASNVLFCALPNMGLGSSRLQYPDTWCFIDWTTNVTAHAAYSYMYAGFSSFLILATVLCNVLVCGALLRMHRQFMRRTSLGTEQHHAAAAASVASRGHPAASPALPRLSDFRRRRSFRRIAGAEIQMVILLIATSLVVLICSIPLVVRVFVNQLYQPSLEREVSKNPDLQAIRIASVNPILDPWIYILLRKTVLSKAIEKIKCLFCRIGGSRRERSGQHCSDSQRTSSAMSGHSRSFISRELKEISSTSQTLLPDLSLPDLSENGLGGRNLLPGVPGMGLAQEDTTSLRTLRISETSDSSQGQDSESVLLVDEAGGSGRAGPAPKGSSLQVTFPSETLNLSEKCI

[4] = target: T10, Serotonin (5-Hydroxytryptamine) 5-HT2B (Homo sapiens, UniProt P41595); test: Radioligand binding, Serotonin (5-Hydroxytryptamine) 5-HT2B
T10 construct: Eurofins Panlabs

SMILES | IC50 (SK-MEL-5 cells) [µM] | IC50 (MALME-3M cells) [µM] | inhibition at 10 µM [1] [%] | inhibition at 10 µM (Dopamine D3) [%] | inhibition at 10 µM [2] [%] | inhibition at 10 µM (Adrenergic β1) [%] | inhibition at 10 µM [3] [%] | inhibition at 10 µM (Bradykinin B2) [%] | inhibition at 10 µM (Muscarinic M3) [%] | inhibition at 10 µM (GABAB1A) [%] | inhibition at 10 µM (Prostanoid EP4) [%] | inhibition at 10 µM [4] [%]
NS(=O)(=O)c1ccc(NC2=CC(=O)c3ccccc3C2=O)cc1 [4-((1,4-dioxo-1,4-dihydronaphthalen-2-yl)amino)benzenesulfonamide] | 0.75 | 0.88 | – | – | – | – | – | – | – | – | – | –
NS(=O)(=O)c1ccc(NC2=CC(=O)c3ccccc3C2=O)cc1 [Example 1, 4-((1,4-Dioxo-1,4-dihydronaphthalen-2-yl)amino)benzenesulfonamide] | – | – | 14 | 9 | 2 | 20 | -5 | 11 | 22 | 11 | 11 | 37

Source: US9745261B2, “Inhibitors of the MITF molecular pathway” (THE GENERAL HOSPITAL CORPORATION, priority 2013, dated 2017)
